Assay results: patent publication US20220127297A1, “Novel Antibacterial 3"-Derivatives Of 4,6-Disubstituted 2,5-Dideoxystreptamine Aminoglycoside Antibiotics” (AGILeBiotics B.V., priority 2018, published 2022)
≈ marks a conversion by molar mass, not a printed value. Like-named read-outs stand apart in the source and are kept apart here.

What was measured:
K. pneumoniae DSM 26371 = experiment: MIC 50, broth micro-dilution, DSM strains; assay type: cell-based, Klebsiella pneumoniae
Source text: (§1) 3.2 Against Selected Bacteria of the ESKAPE Panel and Enterococcus faecalis (DSM Strains)
(§2) Tested reference compounds. Amikacin sulfate (Cat. No. 01693, Chem-Impex), Gentamicin sulfate (Cat. No. G4918, Sigma Aldrich).
(§3) Microbial strains. Enterococcus faecalis DSM 2570, Klebsiella pneumoniae DSM 26371, Acinetobacter baumannii DSM 105126, Enterobacter cloacae 3MRGN (clinical bronchial aspirate isolate).
(§4) Culture media and equipment. BBL™ Mueller Hinton Broth 2 (Lot. BCBW1143, Cat. No. 70192, Sigma); Trypcase Soy Blood-agar plates (Cat. No. 43001, Biomérieux); Cryoinstant (contains 15% glycerol; Cat. No. 822070ZA, VWR International); GasPak™ EZ Standard Incubation Container (Cat. No. 260671, Becton Dickinson); GasPak™ EZ Campy Container System Sachets (Cat. No. 260680, Becton Dickinson); 96-well deep well plate, 1 mL (Cat. No. 0030506.200, Eppendorf); Plate lid (Cat. No. 0030131.525, Eppendorf); 96-well plate, F-bottom (Cat. No. 260860, Nunc); Incubator (Sartorius Certomat BS-1); Laminar flow (Heraeus HS12); UV/VIS meter (Perkin Elmer Lambda Bio+); Platereader (Tecan Infinite M200 Pro).
(§5) Compound preparation. Compounds were prepared in MH2 media at a concentration of 5 mM and stored at 4° C. For testing, solutions of 128 μM were prepared in MH2, for tests against E. faecalis a solution of 512 μM was prepared. Out of these working solutions, 400 μL was transferred to wells in the first column of 96-well deep well plates. Each compound was transferred in triplicate. Plates were previously filled with 200 μL of MH2 media in all wells except for the wells in the first column. After compound and antibiotic addition, the compounds were serial two-fold diluted by transferring 200 μL from the first to the second column, then from the second to the third column and so on. Finally, 200 μL was removed from the last column.
(§6) Inoculum preparation. Microorganisms used were all revived from 15% glycerol storage in Croinstant tubes at −28° C. by plating them on blood agar plates. A. baumanni, and E. cloacae were grown aerobically at 37° C., E. faecalis was grown microaerophilically at 37° C., and K. pneumoniae was grown aerobically at 37° C. Plates were stored at 4° C. for up to two weeks, after which new plates were prepared from −28° C. A single colony was inoculated in MH2 media and grown at 37° C. and 200 rpm to an optical density (measured by UV/Vis spectroscopy) of 0.6-0.8 at 600 nm. Out of these suspensions, actual inoculums were prepared by diluting them to an optical density of 0.1 in MH2 media. From these inoculums, 200 μL was transferred to each well, resulting in a final compound concentration range of 64 μM-31.3 nM for, K. pneumoniae, A. baumanni, and E. cloacae, and 256 μM-125 nM for E. faecalis. Plates inoculated with E. faecalis were placed inside a GasPak™ Container System with GasPak™ Campy Container System sachets. All plates were incubated at 200 rpm for 18 h under the microorganism culturing conditions mentioned above.
(§7) MIC determination. After 18 h of growth, 200 μL was transferred to a 96-well F-bottom plate. The optical density was determined by a plate reader at 600 nm, with 10 s shaking before reading. Triplicate measurements were averaged, and a growth curve was plotted in Excel. The first column in which the growth reached half the value of maximum growth was determined as the MIC50 value for that particular compound.
(§8) MIC50. The MIC50 of a compound was assigned at which the bacterial growth reached half the value of maximum growth.

[1] = test system: Enterobacter cloacae 3MRGN (clinical bronchial aspirate isolate); experiment: MIC 50, broth micro-dilution, clinical isolate; assay type: cell-based; conditions: E. Cloacae clinical isolate
Source text: as §1, §2, §3, §4, §5, §6, §7, §8

[2] = Klebsiella pneumoniae, DSM26371, K. pneumoniae DSM 26371, read-out: MIC 50
[3] = Enterobacter cloacae, read-out: MIC 50

| Structure (SMILES) | MIC50 (K. pneumoniae DSM 26371; K. pneumoniae DSM 26371) | MIC50 [1] | MIC50 (K. pneumoniae DSM 26371; [2]) | MIC50 [1, 3] |
| --- | --- | --- | --- | --- |
| NCC[C@H](O)C(=O)N[C@@H]1C[C@H](N)[C@@H](O[C@H]2O[C@H](CN)[C@@H](O)[C@@H](O)[C@H]2O)[C@H](O)[C@H]1O[C@H]1O[C@H](CO)[C@@H](O)[C@H](N)[C@H]1O [ABX3002, 3′Epi-KanaA-AHB] | 8 µM (≈ 4.68 µg/mL) | 16 µM (≈ 9.37 µg/mL) | – | – |
| N=C(N)NC1[C@@H](O)C(OC2[C@@H](F)[C@H](O[C@H]3OC(CN)[C@@H](O)[C@H](O)C3O)C(N)C[C@H]2NC(=O)[C@@H](O)CCN)O[C@H](CO)[C@H]1O (stereo partly drawn) [ABX3003, 3′epi-KanaA-AHB-F-Gua] | – | – | 0.5 µM (≈ 0.315 µg/mL) | 1 to 2 µM (≈ 0.63 to 1.26 µg/mL) |
| NCCC(O)C(=O)NC1CC(N)C(OC2OC(CN)C(O)C(O)C2O)C(F)C1OC1OC(CO)C(O)C(N)C1O (stereo not drawn) [ABX3005, 3′Epi-KanaA-AHB-F] | 1 µM (≈ 0.588 µg/mL) | 4 µM (≈ 2.35 µg/mL) | – | – |
| NCCC(O)C(=O)NC1CC(N)C(OC2OC(CN)C(O)C(O)C2N)C(O)C1OC1OC(CO)C(O)C(N)C1O (stereo not drawn) [ABX4001, KanaB-AHB] | 0.5 µM (≈ 0.292 µg/mL) | 2 µM (≈ 1.17 µg/mL) | – | – |
| NCC[C@H](O)C(=O)N[C@@H]1CC(N)[C@@H](O[C@H]2OC(CN)[C@@H](O)[C@@H](O)C2N)[C@H](O)C1OC1O[C@H](CO)[C@@H](O)C(N)[C@H]1O (stereo partly drawn) [ABX4002, 3′Epi-KanaB-AHB] | 1 µM (≈ 0.585 µg/mL) | 4 µM (≈ 2.34 µg/mL) | – | – |
| NCC[C@H](O)C(=O)N[C@@H]1CC(N)[C@@H](O[C@H]2OC(CN)[C@@H](O)[C@@H](O)C2N)[C@H](F)C1OC1O[C@H](CO)[C@@H](O)C(N)[C@H]1O (stereo partly drawn) [ABX4003, 3′Epi-KanaB-AHB-F] | 0.5 µM (≈ 0.293 µg/mL) | 4 µM (≈ 2.35 µg/mL) | – | – |
| N=C(N)NC1[C@@H](O)C(OC2[C@@H](F)[C@H](O[C@H]3OC(CN)[C@@H](O)[C@H](O)C3N)C(N)C[C@H]2NC(=O)[C@@H](O)CCN)O[C@H](CO)[C@H]1O (stereo partly drawn) [ABX4004, 3′epi-KanaB-AHB-F-Gua] | 0.25 µM (≈ 0.157 µg/mL) | 1 µM (≈ 0.629 µg/mL) | – | – |
| N=C(N)N[C@@H]1[C@@H](O)[C@@H](O[C@@H]2[C@@H](O)[C@H](O[C@H]3O[C@H](CN)[C@@H](O)[C@@H](O)[C@H]3N)[C@@H](N)C[C@H]2NC(=O)[C@@H](O)CCN)O[C@H](CO)[C@H]1O [ABX4005, 3′Epi-KanaB-AHB-Gua] | 1 to 2 µM | 4 to 8 µM | – | – |
| N=C(N)NC1[C@@H](O)C(OC2[C@@H](F)[C@H](O[C@H]3OC(CN)[C@@H](O)[C@H](O)C3N)C(N)C[C@H]2NC(=O)[C@@H](O)CCN)O[C@H](CO)[C@H]1O (stereo partly drawn) [ABX4006, KanaB-AHB-F-Gua] | – | 0.25 to 0.5 µM | 0.125 µM (≈ 0.0786 µg/mL) | – |
| NCCC(O)C(=O)NC1CC(N)C(OC2OC(CN)C(O)C(O)C2N)C(F)C1OC1OC(CO)C(O)C(N)C1O (stereo not drawn) [ABX4007, KanaB-AHB-F] | 0.5 µM (≈ 0.293 µg/mL) | 1 to 2 µM | – | – |
| N=C(N)NC1[C@@H](O)C(OC2[C@@H](O)[C@H](O[C@H]3OC(CN)[C@@H](O)[C@H](O)C3N)C(N)C[C@H]2NC(=O)[C@@H](O)CCN)O[C@H](CO)[C@H]1O (stereo partly drawn) [ABX4009, KanaB-AHB-Gua] | 1 µM (≈ 0.627 µg/mL) | 2 µM (≈ 1.25 µg/mL) | – | – |
| NCC[C@H](O)C(=O)N[C@@H]1CC(N)[C@@H](O[C@H]2OC(CN)[C@@H](O)CC2N)[C@H](O)C1OC1O[C@H](CO)[C@@H](O)C(N)[C@H]1O (stereo partly drawn) [ABX5004, Tobra-AHB] | 1 µM (≈ 0.569 µg/mL) | 1 µM (≈ 0.569 µg/mL) | – | – |
| N=C(N)NC1[C@@H](O)C(OC2[C@@H](O)[C@H](O[C@H]3OC(CN)[C@@H](O)CC3N)C(N)C[C@H]2NC(=O)[C@@H](O)CCN)O[C@H](CO)[C@H]1O (stereo partly drawn) [ABX5005, Tobra-AHB-Gua] | 0.25 µM (≈ 0.153 µg/mL) | 1 µM (≈ 0.611 µg/mL) | – | – |
| N=C(N)NC1C(O)[C@@H](CO)OC(OC2C(F)[C@H](O[C@H]3OC(CN)[C@@H](O)CC3N)C(N)C[C@H]2NC(=O)[C@@H](O)CCN)[C@@H]1O (stereo partly drawn) [ABX5006, Tobra-AHB-F-Gua] | – | – | < 0.25 µM | 0.25 to 0.5 µM (≈ 0.153 to 0.306 µg/mL) |
| N=C(NCCN)NC1C(O)[C@@H](CO)OC(OC2C(F)[C@H](O[C@H]3OC(CN)[C@@H](O)CC3N)C(N)C[C@H]2NC(=O)[C@@H](O)CCN)[C@@H]1O (stereo partly drawn) [ABX5020, Tobra-AHB-F-Gua-2-amino-ethyl] | – | – | 0.5 µM (≈ 0.328 µg/mL) | 0.5 µM (≈ 0.328 µg/mL) |
| NCC[C@H](O)C(=O)N[C@@H]1CC(N)[C@@H](O[C@H]2OC(CN)[C@@H](O)CC2N)[C@H](F)C1OC1O[C@H](CO)[C@@H](O)C(N)[C@H]1O (stereo partly drawn) [ABX5024, Tobra-AHB-F] | 1 µM (≈ 0.571 µg/mL) | 1 µM (≈ 0.571 µg/mL) | – | – |
| CC(C)(C)CCNC(=N)NC1[C@@H](O)C(OC2[C@@H](F)[C@H](O[C@H]3OC(CN)[C@@H](O)CC3N)C(N)C[C@H]2NC(=O)[C@@H](O)CCN)O[C@H](CO)[C@H]1O (stereo partly drawn) [ABX5025, Tobra-AHB-F-Gua 2-tBu-ethyl] | – | – | 0.5 µM (≈ 0.348 µg/mL) | 0.5 to 1 µM (≈ 0.348 to 0.697 µg/mL) |
| N=C(NC[C@@H]1CCCN1)NC1[C@@H](O)C(OC2[C@@H](F)[C@H](O[C@H]3OC(CN)[C@@H](O)CC3N)C(N)C[C@H]2NC(=O)[C@@H](O)CCN)O[C@H](CO)[C@H]1O (stereo partly drawn) [ABX5026, Tobra-AHB-F-Gua (S) pyrrolidine-2-yl-methyl] | – | – | 0.125 µM (≈ 0.087 µg/mL) | 0.25 µM (≈ 0.174 µg/mL) |
| N=C(NCC1CC1)NC1[C@@H](O)C(OC2[C@@H](F)[C@H](O[C@H]3OC(CN)[C@@H](O)CC3N)C(N)C[C@H]2NC(=O)[C@@H](O)CCN)O[C@H](CO)[C@H]1O (stereo partly drawn) [ABX5027, Tobra-AHB-F-Gua cyclopropylmethyl] | – | – | 0.125 µM (≈ 0.0833 µg/mL) | 0.5 µM (≈ 0.333 µg/mL) |
| N=C(NCCO)NC1[C@@H](O)C(OC2[C@@H](F)[C@H](O[C@H]3OC(CN)[C@@H](O)CC3N)C(N)C[C@H]2NC(=O)[C@@H](O)CCN)O[C@H](CO)[C@H]1O (stereo partly drawn) [ABX5029, Tobra-AHB-F-Gua 2-hydroxy-ethyl] | – | – | 0.125 to 0.25 µM (≈ 0.0821 to 0.164 µg/mL) | 1 µM (≈ 0.657 µg/mL) |
| N=C(NCCCN)NC1[C@@H](O)C(OC2[C@@H](F)[C@H](O[C@H]3OC(CN)[C@@H](O)CC3N)C(N)C[C@H]2NC(=O)[C@@H](O)CCN)O[C@H](CO)[C@H]1O (stereo partly drawn) [ABX5030, Tobra-AHB-F-Gua-3-amino-propyl] | – | – | 0.125 µM (≈ 0.0837 µg/mL) | 1 µM (≈ 0.67 µg/mL) |
| CNCCNC(=N)NC1[C@@H](O)C(OC2[C@@H](F)[C@H](O[C@H]3OC(CN)[C@@H](O)CC3N)C(N)C[C@H]2NC(=O)[C@@H](O)CCN)O[C@H](CO)[C@H]1O (stereo partly drawn) [ABX5038, Tobra-AHB-F-Gua 2-(methylamino)ethyl] | – | – | 0.5 µM (≈ 0.335 µg/mL) | 0.5 µM (≈ 0.335 µg/mL) |
| N=C(NC[C@@H]1CCNC1)NC1[C@@H](O)C(OC2[C@@H](F)[C@H](O[C@H]3OC(CN)[C@@H](O)CC3N)C(N)C[C@H]2NC(=O)[C@@H](O)CCN)O[C@H](CO)[C@H]1O (stereo partly drawn) [ABX5039, Tobra-AHB-F-Gua (R) pyrrolidine-3-ylmethyl] | – | – | 0.5 µM (≈ 0.348 µg/mL) | 0.25 µM (≈ 0.174 µg/mL) |
| N=C(NC[C@@H]1CNCCO1)NC1[C@@H](O)C(OC2[C@@H](F)[C@H](O[C@H]3OC(CN)[C@@H](O)CC3N)C(N)C[C@H]2NC(=O)[C@@H](O)CCN)O[C@H](CO)[C@H]1O (stereo partly drawn) [ABX5040, Tobra-AHB-F-Gua (S) morpholin-2-yl methyl] | – | – | 0.5 µM (≈ 0.356 µg/mL) | 0.25 µM (≈ 0.178 µg/mL) |
